Consider 1 molecule from US20070270462A1, “8-hydroxyquinoline compounds for treating a polyglutamine (polyQ)-expansion disease” (priority 2005, published 2007).

Structures are written as SMILES.

The subject of one series is egfp-alone. Description: Western blotting of cell extracts, egfp-alone expression. It is filed as cell-based. From the text:
(§1) PolyQ-htt-GFP fusion constructs, in which the polyglutamine region is encoded by CAA and CAG-containing tandem repeats ([…]) [SEQ ID NO: 1], human polyglutaminen, were obtained from the Hereditary Disease Foundation, Santa Monica, Calif., USA. PC12 and HEK293 cells were maintained in MEM supplemented with 10% v/v FBS, switched to Opti-MEM without serum for 6 hrs during transfection using Lipofectamine 2000 (Invitrogen, Carlsbad, Calif., USA), and returned to serum-containing medium thereafter (up to 48 hours). […] Control cultures received equivalent amounts of DMSO-containing vehicle (<0.1% w/v DMSO, final concentration).
(§2) HEK293 or PC12 cells were lysed in PBS buffer containing 1% v/v Triton X-100 and protease inhibitor cocktail (Roche, Indianapolis, Ind.), and passed through a 28 gauge needle to ensure the release of Htt inclusions from the nuclei. Whole mouse brains were homogenized in 50 mM Tris-HCl (pH 7.4), 150 mM NaCl, 1% v/v Triton X-100 and complete protease inhibitor cocktail. Brain homogenate was pre-cleared by centrifuging at 7,500 g for 90 s at 4° C. The supernatant was passed through a 28-gauge needle and boiled in SDS sample buffer for 10 min. Fifty μg of total protein was loaded onto 10% w/v SDS gel containing a 4% w/v stacking gel. […]

A further series deals with R6/2 mice. Description: Rotarod performance in R6/2 mice. It is filed as in vivo, mouse. The conditions noted are these: between ninth and eleventh weeks of age, oral CQ 30 mg/kg/day. Here is the method: A colony of transgenic mice strain R6/2 that is heterozygous for htt exon1 (containing 145 CAG repeats) was maintained, with founders originating and available from The Jackson Laboratory (Bar Harbor, Me., USA). Male transgenic R6/2 mice were bred with background strain (B6CBAFI/J) females. Genotyping was done according to Hockly et al, Brain Res Bull 61, 469-479, 2003. CQ in water was orally administered to mice at 30 mg/kg/day starting at 3 weeks of age and continued until the mice were deceased or sacrificed for tissues. Littermate R6/2 mice were gavaged with water vehicle alone. […] Blood glucose levels were determined after at least 8 hrs of fasting in 11-week old mice (n=6 for wild-type, n=4 for vehicle-treated R6/2, n=6 for CQ-treated R6/2 littermates) using a 2300 STAT Plus glucose analyzer (YSI, Yellowsonte, Ohio, USA). Fasting blood insulin levels in animals fasted for 8 hrs were measured using an Ultra Sensitive Rat Insulin ELISA Kit (Crystal Chem, Inc., Downers Grove, Ill., USA) according to manufacturer's instructions.
Rotarod performance (n≧6 for each treatment group) was assessed as described by Hockly et al., 2003 Supra with the modification that the SDI Rota-Rod (San Diego Instruments, San Diego, Calif.) was set to linearly increase in speed to 40 rpm in 4 min ramp time. […]
(In general: The rotarod test checks motor coordination on a turning rod.)

In series [1] the test system is Htt exon1-Q103-egfp transfected PC12 cells. Nature of the series: cells. The format is cell-based.
Source text: as §1
Plasma membrane integrity was evaluated using propidium iodide at 20 μg/ml final concentration. Approximately 200 cells transfected with the Htt^exon1-Q103-egf plasmid were counted for each treatment group 48 hr after transfection. Cells were at that time as expanded protein accumulation had reached a plateau, and 90% of cell death occurred by this time point. The experiment was repeated twice and counts were averaged. Counts of transfected cells were averaged from three independent, randomly-selected fields. ImageJ 1.32j (National Institutes of Health, USA), was used to measure the size of the lateral ventricles (n≧6 for each group). […]

The next series deals with Htt exon1-Q103-egfp. Nature of the series: Western blotting of cell extracts, Htt exon1-Q103-egfp expression. It is filed as cell-based.
Source text: as §1, §2

Consider `Oc1c(I)cc(Cl)c2cccnc12` [CQ, 5-chloro-7-iodo-8-hydroxy-quinoline], for which, in the series on egfp-alone, the “inhibition of egfp-alone expression” value is recorded as “not observed”. In addition, in the series on R6/2 mice, the rotarod performance entry is “scored significantly better”. Moreover, the EC50 in series [1] (Rattus norvegicus, PC-12, Htt exon1-Q103-egfp cells, PI staining, 48 hr after transfection, read-out: cell survival improvement, half maximal effect) fell in the range of 1000 to 2000 nM. For the same molecule, the “CQ concentration at which cell death began to increase (toxic effects of CQ)” value in series [1] (rat, 48 h) was 8 µM. Further, the “CQ concentration at which dose-dependent inhibition of Htt exon1-Q103-egfp expression begins” value with Htt exon1-Q103-egfp came out at 0.5 µM. For the same molecule, in the series on Htt exon1-Q103-egfp (2 μM CQ), the “inhibition of Htt exon1-Q103-egfp expression” value came to 3.2 fold.
